Laboratory results as given in the NIST ThermoML archive (doi:10.1021/acs.jced.6b00219).
Numbers after ± are expanded uncertainties.

Assays:
[1] = Crystal; DTA
[2] = Molar enthalpy of transition or fusion; conditions: Crystal; DSC

SMILES: O=[N+]([O-])c1cn[nH]c1[N+](=O)[O-] [3,4-dinitro-1H-pyrazole]
- Normal melting temperature [1]: 87.83 ± 1.1 °C
- Molar enthalpy of transition or fusion [2]: 2.81 ± 0.203 kcal/mol
